Patent US10793580B2, “Substituted pyrazoloazepin-8-ones and their use as phosphodiesterase inhibitors” (LEO Pharma A/S, priority 2016, dated 2020)

What follows are molecules tested against human PDE4D catalytic domain (Homo sapiens (Human), UniProt Q08499) (assay: PDE4 Assay (TR-FRET, FAM-cAMP cleavage)). Conditions: Table 16, Examples 277-296; read-out: PDE4 IC50 range.
human PDE4D catalytic domain, sequence (Q08499 380-740): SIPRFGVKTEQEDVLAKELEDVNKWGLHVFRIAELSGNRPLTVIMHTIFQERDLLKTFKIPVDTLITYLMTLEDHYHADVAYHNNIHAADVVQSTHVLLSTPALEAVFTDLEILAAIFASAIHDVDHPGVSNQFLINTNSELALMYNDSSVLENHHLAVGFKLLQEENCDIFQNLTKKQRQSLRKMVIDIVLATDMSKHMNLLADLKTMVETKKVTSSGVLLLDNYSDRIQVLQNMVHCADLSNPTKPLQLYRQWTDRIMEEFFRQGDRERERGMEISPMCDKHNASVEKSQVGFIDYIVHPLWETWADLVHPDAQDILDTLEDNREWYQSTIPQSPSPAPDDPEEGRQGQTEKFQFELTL
Type: biochemical
In short: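 Readout is Tb-to-FAM time-resolved FRET after nanoparticle capture of AMP, the product of cleaving a cAMP/FAM-cAMP mixture by PDE4D catalytic domain (S380-L740) in the presence of titrated compound. Values are IC50 ranges in nM: concentration halving substrate cleavage relative to controls.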
In the case of `CCn1nc(C[C@@H](C)COC(=O)C2CCN(C(C)=O)CC2)c2c1C(=O)NCC1(CCOCC1)C2` [Example 294, [(2R)-3-(1-ethyl-8-oxo-spiro[6,7-dihydro-4H-pyrazolo[3,4-c]azepine-5,4′-tetrahydropyran]-3-yl)-2-methyl-propyl] 1-acetylpiperidine-4-carboxylate], the IC50 is reported as < 100 nM.

Same assay, conditions: Table 17, Examples 297-316; read-out: PDE4 IC50 range
`CCn1nc(CC(C)(C)COC(=O)c2ccns2)c2c1C(=O)NCC1(CCOCC1)C2` [Example 303, [3-(1-ethyl-8-oxo-spiro[6,7-dihydro-4H-pyrazolo[3,4-c]azepine-5,4′-tetrahydro-pyran]-3-yl)-2,2-dimethyl-propyl] isothiazole-5-carboxylate] was tested, and the IC50 was < 100 nM. With `CCn1nc(CC(C)(C)COC(=O)c2cc(C)nc(C)c2)c2c1C(=O)NCC1(CCOCC1)C2` [Example 313, [3-(1-ethyl-8-oxo-spiro[6,7-dihydro-4H-pyrazolo[3,4-c]azepine-5,4′-tetrahydropyran]-3-yl)-2,2-dimethyl-propyl] 2,6-dimethylpyridine-4-carboxylate] the IC50 was < 100 nM. `CCn1nc(CC(C)(C)COC(=O)C2CCOCC2)c2c1C(=O)NCC1(CCOCC1)C2` [Example 307, [3-(1-ethyl-8-oxo-spiro[6,7-dihydro-4H-pyrazolo[3,4-c]azepine-5,4′-tetrahydro-pyran]-3-yl)-2,2-dimethyl-propyl] tetrahydropyran-4-carboxylate] was tested, and the IC50 was < 100 nM. In the case of `CCn1nc(CC(C)(C)COC(=O)c2cn(C)cn2)c2c1C(=O)NCC1(CCOCC1)C2` [Example 300, [3-(1-ethyl-8-oxo-spiro[6,7-dihydro-4H-pyrazolo[3,4-c]azepine-5,4′-tetrahydropyran]-3-yl)-2,2-dimethyl-propyl] 1-methylimidazole-4-carboxylate], the IC50 is reported as < 100 nM. For `CCn1nc(CC(C)(C)COC(=O)C2CCN(C(=O)N(C)C)CC2)c2c1C(=O)NCC1(CCOCC1)C2` [Example 316, [3-(1-ethyl-8-oxo-spiro[6,7-dihydro-4H-pyrazolo[3,4-c]azepine-5,4′-tetrahydro-pyran]-3-yl)-2,2-dimethyl-propyl] 1-(dimethylcarbamoyl)-piperidine-4-carboxylate], the IC50 was < 100 nM.

Same assay, conditions: human PDE4D catalytic domain (UniProt Q08499 [S380-L740]); 50% inhibition of substrate cleavage; read-out: PDE4 IC50 range
In the case of `CCn1nc(CC(C)(C)COC(=O)c2ccc(S(=O)(=O)N3CCN(C(C)=O)CC3)cc2)c2c1C(=O)NCC1(CCOCC1)C2` [Example 216, [3-(1-ethyl-8-oxo-spiro[6,7-dihydro-4H-pyrazolo[3,4-c]azepine-5,4′-tetrahydropyran]-3-yl)-2,2-dimethyl-propyl] 4-(4-acetylpiperazin-1-yl)sulfonylbenzoate], the IC50 is reported as < 100 nM. `CCn1nc(CCCOC(=O)c2cc(C(F)(F)F)ccc2C)c2c1C(=O)NCC1(CCOCC1)C2` [Example 67, 3-(1-ethyl-8-oxo-spiro[6,7-dihydro-4H-pyrazolo[3,4-c]azepine-5,4′-tetrahydro-pyran]-3-yl)propyl 2-methyl-5-(trifluoromethyl)benzoate] was tested, and the IC50 was < 100 nM. In the case of `CCn1nc(CCCOC(=O)c2ccc(OC)c(C)c2)c2c1C(=O)NCC1(CCOCC1)C2` [Example 33, 3-(1-ethyl-8-oxo-spiro[6,7-dihydro-4H-pyrazolo[3,4-c]azepine-5,4′-tetrahydropyran]-3-yl)propyl 4-methoxy-3-methyl-benzoate], the IC50 is reported as < 100 nM. For `CCn1nc(CCCOC(=O)c2cccc(F)c2)c2c1C(=O)NCC1(CCOCC1)C2` [Example 9, 3-(1-ethyl-8-oxo-spiro[6,7-dihydro-4H-pyrazolo[3,4-c]azepine-5,4′-tetrahydropyran]-3-yl)propyl 3-fluorobenzoate], the IC50 was < 100 nM. With `CCn1nc(CCCOC(=O)c2ccc(C(C)=O)cc2)c2c1C(=O)NCC1(CCOCC1)C2` [Example 27, 3-(1-ethyl-8-oxo-spiro[6,7-dihydro-4H-pyrazolo[3,4-c]azepine-5,4′-tetrahydropyran]-3-yl)propyl 4-acetylbenzoate] the IC50 was < 100 nM. `CCn1nc(CCCOC(=O)c2ccc(Cl)cc2C(F)(F)F)c2c1C(=O)NCC1(CCOCC1)C2` [Example 84, 3-(1-ethyl-8-oxo-spiro[6,7-dihydro-4H-pyrazolo[3,4-c]azepine-5,4′-tetrahydropyran]-3-yl)propyl 4-chloro-2-(trifluoromethyl)benzoate] was tested, and the IC50 was < 100 nM. For `CCn1nc(CCCOC(=O)c2ccc(C(F)(F)F)c(OC)c2)c2c1C(=O)NCC1(CCOCC1)C2` [Example 83, 3-(1-ethyl-8-oxo-spiro[6,7-dihydro-4H-pyrazolo[3,4-c]azepine-5,4′-tetrahydro-pyran]-3-yl)propyl 3-methoxy-4-(trifluoromethyl)benzoate], the IC50 was < 100 nM. In the case of `CCn1nc(CCCOC(=O)c2cccc(C(=O)N3CCCCC3)c2)c2c1C(=O)NCC1(CCOCC1)C2` [Example 117, 3-(1-ethyl-8-oxo-spiro[6,7-dihydro-4H-pyrazolo[3,4-c]azepine-5,4′-tetrahydropyran]-3-yl)propyl 3-(piperidine-1-carbonyl)benzoate], the IC50 is reported as < 100 nM. With `CCn1nc(CCCCOC(=O)c2ccc(C(=O)N(C)C)cc2)c2c1C(=O)NCC1(CCOCC1)C2` [Example 129, 4-(1-ethyl-8-oxo-spiro[6,7-dihydro-4H-pyrazolo[3,4-c]azepine-5,4′-tetrahydropyran]-3-yl)butyl 4-(dimethyl-carbamoyl)benzoate] the IC50 was < 100 nM. `CCn1nc(CCCOC(=O)c2ccccc2S(C)(=O)=O)c2c1C(=O)NCC1(CCOCC1)C2` [Example 64, 3-(1-ethyl-8-oxo-spiro[6,7-dihydro-4H-pyrazolo[3,4-c]azepine-5,4′-tetrahydropyran]-3-yl)propyl 2-methylsulfonylbenzoate] was tested, and the IC50 was < 100 nM. With `CCn1nc(CC(C)(C)COC(=O)c2ccc(S(C)(=O)=O)cc2)c2c1C(=O)NCC1(CCOCC1)C2` [Example 202, [3-(1-ethyl-8-oxo-spiro[6,7-dihydro-4H-pyrazolo[3,4-c]azepine-5,4′-tetrahydropyran]-3-yl)-2,2-dimethyl-propyl] 4-methylsulfonylbenzoate] the IC50 was < 100 nM. For `CCn1nc(C[C@@H](C)COC(=O)c2ccc(C(=O)N3CCOCC3)cc2)c2c1C(=O)NCC1(CCOCC1)C2` [Example 174, [(2R)-3-(1-ethyl-8-oxo-spiro[6,7-dihydro-4H-pyrazolo[3,4-c]azepine-5,4′-tetrahydropyran]-3-yl)-2-methyl-propyl] 4-(morpholine-4-carbonyl)benzoate], the IC50 was < 100 nM. For `CCn1nc(CCCOC(=O)c2cc(Cl)ccc2C(F)(F)F)c2c1C(=O)NCC1(CCOCC1)C2` [Example 87, 3-(1-ethyl-8-oxo-spiro[6,7-dihydro-4H-pyrazolo[3,4-c]azepine-5,4′-tetrahydro-pyran]-3-yl)propyl 5-chloro-2-(trifluoromethyl)benzoate], the IC50 was < 100 nM. For `CCn1nc(CC(C)(C)COC(=O)c2ccc(C(=O)NC)cc2)c2c1C(=O)NCC1(CCOCC1)C2` [Example 219, [3-(1-ethyl-8-oxo-spiro[6,7-dihydro-4H-pyrazolo[3,4-c]azepine-5,4′-tetrahydropyran]-3-yl)-2,2-dimethyl-propyl] 4-(methylcarbamoyl)benzoate], the IC50 was < 100 nM. `CCn1nc(CCCOC(=O)c2ccc(C(F)(F)F)c(F)c2)c2c1C(=O)NCC1(CCOCC1)C2` [Example 75, 3-(1-ethyl-8-oxo-spiro[6,7-dihydro-4H-pyrazolo[3,4-c]azepine-5,4′-tetrahydro-pyran]-3-yl)propyl 3-fluoro-4-(trifluoromethyl)benzoate] was tested, and the IC50 was < 100 nM. `CCn1nc(CCCOC(=O)c2cscn2)c2c1C(=O)NCC1(CCOCC1)C2` [Example 244, 3-(1-ethyl-8-oxo-spiro[6,7-dihydro-4H-pyrazolo[3,4-c]azepine-5,4′-tetrahydropyran]-3-yl)propyl thiazole-4-carboxylate] was tested, and the IC50 was < 100 nM. `CCn1nc(CCCOC(=O)c2cc(C(F)(F)F)ccc2F)c2c1C(=O)NCC1(CCOCC1)C2` [Example 73, 3-(1-ethyl-8-oxo-spiro[6,7-dihydro-4H-pyrazolo[3,4-c]azepine-5,4′-tetrahydro-pyran]-3-yl)propyl 2-fluoro-5-(trifluoromethyl)benzoate] was tested, and the IC50 was < 100 nM. `CCn1nc(CCCOC(=O)c2cccc(C(=O)N3CCN(C(C)=O)CC3)c2)c2c1C(=O)NCC1(CCOCC1)C2` [Example 120, 3-(1-ethyl-8-oxo-spiro[6,7-dihydro-4H-pyrazolo[3,4-c]azepine-5,4′-tetrahydropyran]-3-yl)propyl 3-(4-acetylpiperazine-1-carbonyl)benzoate] was tested, and the IC50 was < 100 nM. For `CCn1nc(CCCOC(=O)c2ccc(S(=O)(=O)N3CCN(C(C)=O)CC3)cc2)c2c1C(=O)NCC1(CCOCC1)C2` [Example 102, 3-(1-ethyl-8-oxo-spiro[6,7-dihydro-4H-pyrazolo[3,4-c]azepine-5,4′-tetrahydropyran]-3-yl)propyl 4-(4-acetylpiperazin-1-yl)sulfonylbenzoate], the IC50 was < 100 nM. For `CCn1nc(C[C@@H](C)COC(=O)c2ccc(C(=O)N3CCN(C(C)=O)CC3)cc2)c2c1C(=O)NCC1(CCOCC1)C2` [Example 176, [(2R)-3-(1-ethyl-8-oxo-spiro[6,7-dihydro-4H-pyrazolo[3,4-c]azepine-5,4′-tetrahydropyran]-3-yl)-2-methyl-propyl] 4-(4-acetylpiperazine-1-carbonyl)benzoate], the IC50 was < 100 nM. For `CCn1nc(CCCOC(=O)c2cnc(C)nc2)c2c1C(=O)NCC1(CCOCC1)C2` [Example 247, 3-(1-ethyl-8-oxo-spiro[6,7-dihydro-4H-pyrazolo[3,4-c]azepine-5,4′-tetrahydropyran]-3-yl)propyl 2-methylpyrimidine-5-carboxylate], the IC50 was < 100 nM. In the case of `CCn1nc(CCCOC(=O)c2cc(F)cc(C(F)(F)F)c2)c2c1C(=O)NCC1(CCOCC1)C2` [Example 72, 3-(1-ethyl-8-oxo-spiro[6,7-dihydro-4H-pyrazolo[3,4-c]azepine-5,4′-tetrahydro-pyran]-3-yl)propyl 3-fluoro-5-(trifluoromethyl)benzoate], the IC50 is reported as < 100 nM.
